Assay results published in ChEMBL document CHEMBL1201862, “PubChem BioAssay data set” (2004).
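The compound was tested at five concentrations on cells cultured in 96-well plates, with a 48-hour exposure period. GI50 is the concentration that inhibits growth by half.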 Calls of active or inactive are those of the source. Rule as the data show it: active = GI50 up to about 1.1 µM and inactive = higher.

Key:
Test in all cases: NCI anticancer screen, dose series, 48 h
[1] = system: KM-20L2
[2] = system: SK-MEL-5
[3] = system: UO-31
[4] = system: NCI-H226
[5] = system: EKVX
[6] = system: UACC-257
[7] = system: RPMI-8226
[8] = system: SF-539
[9] = system: SW-620
[10] = system: HOP-62
[11] = system: 786-0
[12] = system: LOX IMVI
[13] = system: SNB-19
[14] = system: SK-MEL-28
[15] = system: U-251
[16] = system: ACHN
[17] = system: RXF 393
[18] = system: T47D
[19] = system: Hs-578T
[20] = system: SNB-75

Measured: GI50

CC1(C)OC(=O)C(=Cc2ccc(O)cc2)C(=O)O1
inactive: [1] > 100 µM | [2] > 100 µM | [3] > 100 µM | [4] > 100 µM | [5] > 100 µM | [6] > 100 µM | [7] > 100 µM | [8] > 100 µM | [9] > 100 µM | [10] > 100 µM | [11] > 100 µM | [12] > 100 µM | [13] > 100 µM | [14] > 100 µM | [15] > 100 µM | [16] > 100 µM

CC(=O)O/C=C\OC1CCCC1(c1ccccc1)c1ccccc1 (stereo unspecified)
inactive: [17] 2.3 µM | [2] 2.61 µM | [18] 2.47 µM | [3] 1.94 µM | [4] 9.04 µM | [5] 7.5 µM | [6] 3.65 µM | [7] 2.65 µM | [8] 1.73 µM | [19] 3.1 µM | [9] 2.42 µM | [10] 12.4 µM | [11] 3.21 µM | [12] 1.63 µM | [13] 11.2 µM | [14] 2.1 µM | [15] 3.52 µM | [16] 2.03 µM | [20] 3.35 µM

COc1c(-c2cc(C)c(Cl)c(=O)[nH]2)c(O)c(OC)c2occc12
inactive: [17] 52.2 µM | [2] 78.3 µM | [18] > 100 µM | [3] 38.5 µM | [4] > 100 µM | [5] > 100 µM | [6] > 100 µM | [7] > 100 µM | [8] > 100 µM | [19] > 10 µM | [9] > 100 µM | [10] > 100 µM | [11] > 100 µM | [12] > 100 µM | [13] 96.4 µM | [14] > 100 µM | [15] > 100 µM | [16] > 100 µM | [20] 26.7 µM

CC(C)=CCC[C@H](C)[C@H]1CC[C@@H](C)c2cc(O)c(C)cc21
inactive: [17] 20.7 µM | [2] 16.2 µM | [18] 16.9 µM | [3] 14 µM | [4] 18 µM | [5] 17.6 µM | [6] 17.4 µM | [7] 26.1 µM | [8] 17.8 µM | [19] 19.9 µM | [9] 23.1 µM | [10] 19.1 µM | [11] 18.6 µM | [12] 16.3 µM | [13] 16.6 µM | [14] 18.5 µM | [15] 17.1 µM | [16] 16.8 µM | [20] 19.1 µM

Cc1cccc2c(N)c3cccc(C(=O)NCC[N+]4(Cc5ccc([N+](=O)[O-])cc5)CCOCC4)c3nc12
inactive: [17] 62.2 µM | [2] 53.5 µM | [18] 29.2 µM | [3] 48.2 µM | [4] 41 µM | [5] 36.2 µM | [6] 60.3 µM | [7] 26.1 µM | [8] 24.8 µM | [19] 7.26 µM | [9] 44.2 µM | [10] 25.7 µM | [11] 12.8 µM | [12] 39.9 µM | [13] 18.2 µM | [14] 49.7 µM | [15] 38.8 µM | [16] 29 µM | [20] 16 µM

CC(=O)N(C(C)=O)C1=C2c3ccccc3N(S(=O)(=O)c3ccccc3)C2n2c(=O)n(-c3ccccc3)c(=O)n2C1 (stereo unspecified)
inactive: [1] 34.2 µM | [2] 27 µM | [3] 29.7 µM | [5] 21.9 µM | [6] 44.2 µM | [7] 12.7 µM | [8] 19.9 µM | [9] 40.6 µM | [10] 62.4 µM | [11] 38.6 µM | [12] 29.9 µM | [13] 30.3 µM | [14] 30 µM | [15] 34.4 µM | [16] 30.9 µM | [20] 14 µM

COc1cc(CNc2nc3ccccc3n2Cc2ccccc2)cc(CN2CCOCC2)c1O
inactive: [17] 18.2 µM | [2] 18.6 µM | [18] > 100 µM | [3] 18.2 µM | [4] 30.8 µM | [5] 53.3 µM | [6] 20.1 µM | [7] 91 µM | [8] 20 µM | [19] 29.9 µM | [9] 45.6 µM | [10] 28.6 µM | [11] 16.7 µM | [12] 15.5 µM | [13] 61.8 µM | [14] 18.4 µM | [15] 31.2 µM | [16] 39.6 µM | [20] 27.9 µM

Cc1cc(C)c([S@@](=O)O[C@@H]2[C@H]3OC(C)(C)O[C@H]3O[C@@H]2[C@H]2COC(C)(C)O2)c(C)c1
inactive: [17] 19.3 µM | [2] 31.2 µM | [18] 37.5 µM | [3] 17.6 µM | [4] 24.6 µM | [5] 20.4 µM | [6] 19.5 µM | [7] 17.1 µM | [8] 19.5 µM | [19] 37.2 µM | [9] 20 µM | [10] 21.5 µM | [11] 26.9 µM | [12] 14 µM | [13] 40 µM | [14] 29.1 µM | [15] 20.2 µM | [16] 15.3 µM | [20] 21.8 µM
